Experimental data taken from patent US12685716B1 (priority 2022, dated 2026).

Test system: subject with AF/AFL
Assay: Initiation of IV sotalol followed by first oral dose and same-day discharge (case Examples 1-12)
Type: in vivo, human
Protocol: • 1. After admission, obtain baseline parameters including QTc interval, HR, BP. • 2. […] Monitor QTc interval, HR, BP every 15 minutes during infusion. • 4. Administer first oral dose at the appropriate time based on renal function. For CrCl≥60 mL/min, oral administration time is planned 4 hours following the completion of IV infusion. For CrCl=30-59 mL/min, oral administration time is planned 6 hours following the completion of IV infusion. • 5. Obtain monitoring parameters including QTc interval, HR, BP at about 2 hours after oral administration. • 6. […] At arrival, baseline labs were obtained, and the subject was placed on continuous electrocardiogra monitoring. […] At arrival, baseline labs were obtained, and the subject was placed on continuous electrocardiography monitoring. […] At arrival, baseline labs were obtained, and the subject was placed on continuous electrocardiography monitoring. […] At arrival, baseline labs were obtained, and the subject was placed on continuous electrocardiography monitoring. […] At arrival, baseline labs were obtained, and the subject was placed on continuous electrocardiography monitoring. […] At arrival, baseline labs were obtained, and the subject was placed on continuous electrocardiography monitoring. […] At arrival, baseline labs were obtained, and the subject was placed on continuous electrocardiography monitoring. […] At arrival, baseline labs were obtained, and the subject was placed on continuous electrocardiography monitoring. […] At arrival, baseline labs were obtained, and the subject was placed on continuous electrocardiography monitoring. […] At arrival, baseline labs were obtained, and the subject was placed on continuous electrocardiography monitoring. […] At arrival, baseline labs were obtained, and the subject was placed on continuous electrocardiography monitoring. […] At arrival, baseline labs were obtained, and the subject was placed on continuous electrocardiography monitoring.

[1] = Example 1: IV 82.5 mg, DCCV, PO 80 mg 4 h after IV completion
[2] = Example 2: IV 82.5 mg, PO 80 mg 4 h after IV completion
[3] = Example 3: IV 75 mg, DCCV, PO 80 mg 5.5 h after IV completion
[4] = Example 4: IV 75 mg, DCCV, PO 80 mg 6.5 h after IV completion
[5] = Example 5: IV 75 mg, DCCV, PO 80 mg 5 h after IV completion
[6] = Example 6: IV 75 mg, DCCV, PO 80 mg 5.5 h after IV completion
[7] = Example 7: IV 60 mg, PO 120 mg 5 h after IV completion, second DCCV
[8] = Example 8: IV 82.5 mg, DCCV, PO 80 mg 4 h after IV completion
[9] = Example 9: IV 90 mg, DCCV, PO 120 mg 3.5 h after IV completion
[10] = Example 10: IV 75 mg, DCCV, PO 80 mg 6 h after IV completion
[11] = Example 11: IV 75 mg, DCCV, PO 80 mg 6 h after IV completion
[12] = Example 12: IV 75 mg, DCCV, PO 80 mg 6 h after IV completion

Structure (SMILES): CC(C)NCC(O)c1ccc(NS(C)(=O)=O)cc1 (stereo not shown) [sotalol, d,1-sotalol]
- Monitoring parameters (QTc, HR, BP) two hours after oral administration [1]: within normal limits
- Rhythm two hours after oral administration [1]: remained in NSR
- Rhythm conversion after IV sotalol infusion (Example 1: person, persistent AF/AFL, IV 82.5 mg over 1 h, then DCCV): converted from AF to NSR
- Monitoring parameters (QTc, HR, BP) two hours after oral administration [2]: within normal limits
- Rhythm two hours after oral administration [2]: remained in NSR
- Rhythm conversion after IV sotalol infusion (Example 2: person, paroxysmal AF and PVCs, IV 82.5 mg over 1 h, no DCCV): converted from AF to NSR
- Monitoring parameters including QTc two hours after oral administration [3]: within normal limits
- Rhythm two hours after oral administration [3]: remained in NSR
- Rhythm conversion after IV sotalol infusion (Example 3: person, persistent AF, CrCl 30 mL/min, IV 75 mg over 1 h, then DCCV): converted from AF to NSR
- Monitoring parameters including QTc two hours after oral administration [4]: within normal limits
- Rhythm two hours after oral administration [4]: remained in NSR
- Rhythm conversion after IV sotalol infusion (Example 4: person, persistent AF, CrCl 38 mL/min, IV 75 mg over 1 h, then DCCV): converted from AF to NSR
- Monitoring parameters including QTc two hours after oral administration [5]: within normal limits
- Rhythm two hours after oral administration [5]: remained in NSR
- Rhythm conversion after IV sotalol infusion (Example 5: person, persistent AF, CrCl 37 mL/min, IV 75 mg over 1 h, then DCCV): converted from AF to NSR
- Monitoring parameters including QTc two hours after oral administration [6]: within normal limits
- Rhythm two hours after oral administration [6]: remained in NSR
- Rhythm conversion after IV sotalol infusion (Example 6: person, PVCs and paroxysmal AF, CrCl 41 mL/min, IV 75 mg over 1 h, then DCCV): converting the subject from AF to NSR
- Monitoring parameters (QTc, HR, BP) two hours after oral administration [7]: within normal limits
- Rhythm two hours after oral administration [7]: remained in NSR
- Rhythm conversion after first oral dose and second DCCV (Example 7: IV 60 mg, PO 120 mg 5 h after IV completion, then second DCCV): converted from AF to NSR
- Rhythm conversion after IV sotalol infusion and first DCCV attempt (Example 7: person, persistent AF, IV 60 mg over 1 h, then first DCCV): failed to convert
- Monitoring parameters (QTc, HR, BP) two hours after oral administration [8]: within normal limits
- Rhythm two hours after oral administration [8]: remained in NSR
- Rhythm conversion after IV sotalol infusion (Example 8: person, persistent AF, IV 82.5 mg over 1 h, then DCCV): converted from AF to NSR
- Monitoring parameters (QTc, HR, BP) two hours after oral administration [9]: within normal limits
- Rhythm two hours after oral administration [9]: remained in NSR
- Rhythm conversion after IV sotalol infusion (Example 9: person, persistent AF, IV 90 mg over 1 h, then DCCV): converting the subject from AF to NSR
- Monitoring parameters (QTc, HR, BP) two hours after oral administration [10]: within normal limits
- Rhythm two hours after oral administration [10]: remained in NSR
- Rhythm conversion after IV sotalol infusion (Example 10: person, persistent AF, CrCl 56 mL/min, IV 75 mg over 1 h, then DCCV): converted from AF to NSR
- Monitoring parameters (QTc, HR, BP) two hours after oral administration [11]: within normal limits
- Rhythm two hours after oral administration [11]: remained in NSR
- Rhythm conversion after IV sotalol infusion (Example 11: person, persistent AF, CrCl 50 mL/min, IV 75 mg over 1 h, then DCCV): converted from AF to NSR
- Monitoring parameters (QTc, HR, BP) two hours after oral administration [12]: within normal limits
- Rhythm two hours after oral administration [12]: remained in NSR
- Rhythm conversion after IV sotalol infusion (Example 12: person, PVCs and persistent AF, CrCl 53 mL/min, IV 75 mg over 1 h, then DCCV): converted from AF to NSR
